Data reported in publication PMC3516885 (Chembiochem : a European journal of chemical biology, 2012).
Positions of bridges follow the written chain, without caps; N, C: chain ends. Residues, ends and D or L forms follow the SMILES beside them.

Key:
[1] = Human serum stability assay; assay type: in vitro ADME; conditions: for peptide remaining after 24 hours in human serum (in words): 0.9 mg/mL, buffered human serum, 37 deg. C; for remaining at 7 h, 0.9 mg/mL: male, human, human type-AB serum diluted 9:1 in phosphate-buffered saline
[2] = target: Grb2-SH2 (Homo sapiens, UniProt P62993); assay type: binding; conditions: 5 nM pYVNV ligand, 0.91 μM Grb2-SH2
Grb2-SH2, sequence (P62993 60-152 limits assumed): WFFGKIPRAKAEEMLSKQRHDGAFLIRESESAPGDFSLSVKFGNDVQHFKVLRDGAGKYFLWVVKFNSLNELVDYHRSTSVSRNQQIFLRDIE

Row | SMILES | peptide remaining after 24 hours in human serum (in words) [1] | remaining at 7 h, 0.9 mg/mL [1] [%] | inhibition of Grb2-SH2 in the competition assay (in words) [2]
1 | CSCC[C@@H]1NC(=O)CNC(=O)[C@H](C(C)C)NC(=O)[C@H](CC(N)=O)NC(=O)[C@H](CCC(=O)O)NC(=O)[C@H](Cc2ccc(O)cc2)NC(=O)[C@H](CC(C)C)NC(=O)[C@H](CCC(=O)O)NC(=O)[C@@H](N)CSSC[C@@H](C(N)=O)NC(=O)[C@H](Cc2ccc(O)cc2)NC1=O [G1, reference compound] (H-CELYENVGMYC-NH2; disulfide 1-11; N-terminus and C-terminus assumed) | no detectable amounts of peptide remaining | < 30 | 
2 | CSCC[C@@H]1NC(=O)CNC(=O)[C@H](C(C)C)NC(=O)[C@H](CC(N)=O)NC(=O)[C@@H]2CCCN2C(=O)[C@H](Cc2ccc(O)cc2)NC(=O)[C@H](CC(C)C)NC(=O)[C@H](CCC(=O)O)NC(=O)[C@@H](N)CSSC[C@@H](C(N)=O)NC(=O)[C@H](Cc2ccc(O)cc2)NC1=O [G1-Pro] (H-CELYPNVGMYC-NH2; disulfide 1-11; N-terminus and C-terminus assumed) | no detectable amounts of peptide remaining | < 30 | little inhibitory activity
